Assay results: PubChem BioAssay (NCI)
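Five concentrations, 48 hours, 96-well plates. At the TGI there is no net growth.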

Legend:
Assay in all cases: DTP human tumour cell line panel, 48 h
[1] = test system: SNB-19 CNS
[2] = test system: NCI-H460 lung
[3] = test system: HT29 colon
[4] = test system: MDA-N
[5] = test system: NCI-H23 lung
[6] = test system: SW-620 colon
[7] = test system: SK-MEL-5 melanoma
[8] = test system: MDA-MB-435
[9] = test system: SF-268 CNS
[10] = test system: UACC-257 melanoma
[11] = test system: A498 renal
[12] = test system: NCI-H522 lung
[13] = test system: OVCAR-8 ovarian
[14] = test system: EKVX NSCLC
[15] = test system: RXF 393 renal
[16] = test system: RPMI-8226 leukemia
[17] = test system: HCT-116 colon
[18] = test system: SF-539 CNS
[19] = test system: SN12C renal

Compound | TGI [1] | TGI [2] | TGI [3] | TGI [4] | TGI [5] | TGI [6] | TGI [7] | TGI [8] | TGI [9] | TGI [10] | TGI [11] | TGI [12] | TGI [13] | TGI [14] | TGI [15] | TGI [16] | TGI [17] | TGI [18] | TGI [19]
C/C=C1/CC(C(=O)OC)N(C(=O)OCc2ccccc2)C1=S (stereo unspecified) | > 100 µM | 38.8 µM | > 100 µM | > 100 µM | > 100 µM | > 100 µM | > 100 µM | > 100 µM | > 100 µM | > 100 µM | > 100 µM | > 100 µM | > 100 µM | > 100 µM | > 100 µM | > 100 µM | > 100 µM | – | –
C#CCN(Cc1ccc2nc(-c3ccccc3)c(Cl)nc2c1)c1ccc(F)cc1 | > 100 µM | > 100 µM | > 100 µM | > 100 µM | > 100 µM | > 100 µM | > 100 µM | > 100 µM | > 100 µM | > 100 µM | > 100 µM | > 100 µM | > 100 µM | > 100 µM | – | > 100 µM | > 100 µM | > 100 µM | > 100 µM
CN(Cc1cnc2nc(N)nc(N)c2n1)c1ccc(C(=O)NCCCS(=O)(=O)O)cc1 | > 100 µM | > 100 µM | > 100 µM | > 100 µM | > 100 µM | > 100 µM | > 100 µM | > 100 µM | > 100 µM | > 100 µM | > 100 µM | > 100 µM | > 100 µM | > 100 µM | – | > 100 µM | > 100 µM | > 100 µM | > 100 µM
COCN1C(=O)[C@@H]2CCCN2C(=O)c2cc(OC)c(Cc3ccccc3)cc21 | > 100 µM | – | > 100 µM | > 100 µM | > 100 µM | > 100 µM | – | > 100 µM | > 100 µM | > 100 µM | > 100 µM | > 100 µM | > 100 µM | > 100 µM | > 100 µM | – | > 100 µM | > 100 µM | > 100 µM
CC(C#N)(c1ccccc1)N(CCc1ccccc1)C(=O)Oc1ccccc1 (stereo unspecified) | > 100 µM | – | > 100 µM | > 100 µM | > 100 µM | > 100 µM | > 100 µM | > 100 µM | > 100 µM | > 100 µM | > 100 µM | > 100 µM | > 100 µM | > 100 µM | > 100 µM | > 100 µM | > 100 µM | > 100 µM | > 100 µM
COc1ccc2c(-c3csc(-c4c[nH]c5ccc(Br)cc45)n3)c[nH]c2c1 | > 100 µM | > 100 µM | > 100 µM | 30.8 µM | > 100 µM | > 100 µM | > 100 µM | 67.9 µM | 73.4 µM | > 100 µM | > 100 µM | 92.6 µM | > 100 µM | > 100 µM | 27.9 µM | > 100 µM | > 100 µM | – | > 100 µM
C=CCN1C(=O)CC2[C@@H]3CCc4cc(O)ccc4C3CC[C@]2(C)C1=O (stereo partly specified) | > 10 µM | > 10 µM | > 10 µM | > 10 µM | > 10 µM | > 10 µM | > 10 µM | > 10 µM | > 10 µM | > 10 µM | > 10 µM | – | > 10 µM | > 10 µM | > 10 µM | > 10 µM | > 10 µM | > 10 µM | > 10 µM
COC(=NC(C)C)NC(C)C | > 100 µM | > 100 µM | – | > 100 µM | > 100 µM | > 100 µM | > 100 µM | > 100 µM | > 100 µM | – | > 100 µM | – | > 100 µM | > 100 µM | – | > 100 µM | > 100 µM | > 100 µM | > 100 µM
CN1CCN(Cn2nc(COc3ccccc3Cl)n(/N=C/c3ccc(-c4ccc(Cl)cc4Cl)o3)c2=S)CC1 | – | 51.6 µM | 42.9 µM | 53.8 µM | 44.8 µM | 34.6 µM | 71.8 µM | 64.5 µM | > 100 µM | > 100 µM | 54.1 µM | 56.1 µM | 79.3 µM | > 100 µM | 32 µM | 83.8 µM | 34.7 µM | 62.6 µM | –
C[N+]1(C)C2CC(OC(=O)C(CO)c3ccccc3)CC1C1OC12 (stereo unspecified) | > 100 µM | – | > 100 µM | > 100 µM | > 100 µM | > 100 µM | > 100 µM | > 100 µM | – | > 100 µM | > 100 µM | > 100 µM | > 100 µM | > 100 µM | > 100 µM | > 100 µM | > 100 µM | > 100 µM | > 100 µM
O=C1CSC(c2c[nH]c3ccccc23)N1c1cccc(Cl)c1 (stereo unspecified) | > 100 µM | > 100 µM | > 100 µM | > 100 µM | > 100 µM | > 100 µM | > 100 µM | > 100 µM | > 100 µM | > 100 µM | > 100 µM | – | > 100 µM | > 100 µM | > 100 µM | 54.7 µM | > 100 µM | > 100 µM | > 100 µM
CC(NCc1c(O)ccc2c(-c3ccccc3)cc(=O)oc12)C(=O)O (stereo unspecified) | > 100 µM | > 100 µM | > 100 µM | > 100 µM | > 100 µM | > 100 µM | > 100 µM | > 100 µM | > 100 µM | > 100 µM | – | > 100 µM | > 100 µM | > 100 µM | > 100 µM | > 100 µM | > 100 µM | > 100 µM | > 100 µM
Clc1ccc(Cc2nc3ccccc3o2)cc1 | > 100 µM | > 100 µM | > 100 µM | > 100 µM | > 100 µM | > 100 µM | > 100 µM | > 100 µM | > 100 µM | > 100 µM | – | > 100 µM | > 100 µM | > 100 µM | 97.8 µM | > 100 µM | > 100 µM | > 100 µM | > 100 µM
